Laboratory results as given in patent US10434138B2, “Formulations” (Sublimity Therapeutics Limited, priority 2013, dated 2019).
Counter-ions that a name gives are not always drawn. Like-named read-outs stand apart in the source and are kept apart here.

How the values were obtained:
[1] = conversion of the g/L value
[2] = cited from earlier work

## NNc1nncc2ccccc12 [Hydralazine HCl]
[1]
  solubility in water: ~0.8%
[2]
  solubility in water: approximately 8 g/L
